These results are taken from article PMC4379580 (Viruses, 2015).

The target in test [1] is WT-His-P9-1 (Southern rice black-streaked dwarf virus, UniProt B2LHU4, S138T). The test is described as follows: biochemical.
For test [2], the target named is T1, WT-His-P9-1 (Southern rice black-streaked dwarf virus, UniProt B2LHU4).
T1 construct: protein encoded by first ORF of segment S9 (P9)
The test is described as follows: intrinsic fluorescence quenching titration. To be noted: 298 K, pH 7.4, 20 μM protein, excitation 275 nm, Hill equation. It is filed as binding.

A further test deals with TR-ΔN6-His-P9-1 (Southern rice black-streaked dwarf virus, UniProt B2LHU4). To be noted: 298 K, 20 μM protein, excitation 275 nm, Hill equation.
The target of another test is TR-ΔC23-His-P9-1 (Southern rice black-streaked dwarf virus, UniProt B2LHU4). To be noted: 298 K, 20 μM protein, excitation 275 nm, Hill equation.

pKd: −log10 of the molar value.

`CCOP(=O)(OCC)C(Nc1nc2c(C)cccc2s1)c1ccccc1F` (stereo not shown) [DFL, dufulin]: the negative logarithm of the Kd (pKd) – broadly, the negative decadic logarithm of the Kd, by convention in mol/L – at WT-His-P9-1 [1] is 5.01. For the same molecule, the “Binding parameters / KA (M^-1)” value is listed as 1 × 10^5.061 at WT-His-P9-1 [2], 1 × 10^6.421 on TR-ΔN6-His-P9-1 and 1 × 10^4.470 at TR-ΔC23-His-P9-1.
